# Data as given in patent US5389621A, “Method of enhancing the anticoagulant effects of aspirin using salicylamide” (University of Medicine and Dentistry of New Jersey, priority 1994, dated 1995).
# Where two headings read alike, the source gives them in different places.
# How the values were obtained:
# [1] = tested on: lipooxygenase pathway; conditions: cited from earlier work
# [2] = oral, rats; cited from earlier work
# [3] = tested on: lyso-PAF:acetyl-CoA acetyltransferase; conditions: cited from earlier work
# [4] = Tissue distribution of 14C radioactivity after 14C-aspirin; type: in vivo, male Sprague-Dawley rats; conditions: for Tissue with the highest 14C concentration: 14C-ASA alone or with SAM, low dose
# Experimental: Male adult Sprague-Dawley rats (300-325 gm) obtained from Charles River Breeding Laboratory, N. Wilmington, Mass. were quarantined for one week. All animals were identified by ear punching. Food and water were provided ad libitum. The animals were maintained on rodent lab chow diet in a controlled environment with 50% humidity and 12 hour light/dark cycle.
# (§1) Forty-eight rats were divided into two groups. The first group of rats was administered ASA, SAM or their combination in a dose approximately equal (w/w) to that in the commercially available combinations, e.g., BC® formula, when administered to humans, i.e., 10 and 3 mg/kg of ASA and SAM, respectively. The second group was administered double the dosage received by the first group.
# Each group consisted of 24 rats and was further divided into 4 subgroups, 6 rats each, according to the following scheme:
# The rats were fasted overnight. The drug(s) were prepared fresh, dissolved in 2.5 ml of deionized water and administered orally by gavage needle. The rats were allowed water ad libitum before and after the oral administration.
# The different treatments were given according to the previous scheme and each rat received an amount of radioactivity equal to […] in the case of radioactive aspirin and 10 μCu in the case of radioactive salicylamide.
# The rats were anesthetized by light diethyl ether inhalation. A blood sample of nearly 3 ml was collected by cardiac puncture 1.5 hours after oral administration. The blood was transferred to chilled polyethylene tubes containing 30 μl of 50% (w/w) potassium fluoride to prevent hydrolysis of ASA. A 300 μl aliquot was pipetted in a scintillation vial to study the distribution in whole blood. The rest of the collected blood was immediately centrifuged at 1800×g for 10 minutes at 4° C. and the plasma was decanted. 100 μl of the plasma were pipetted in a scintillation vial for measurement of the total radioactivity and the rest of the plasma was stored immediately at -70° C. for later study of the distribution of the metabolites.
# 300 μl of the pellet of red blood cells was pipetted in a scintillation vial to study the distribution in red blood cells. The rest of the red blood cells were washed twice by adding 2 ml of physiological saline and were resuspended after each addition.
# After collecting the blood sample, the rats were sacrificed immediately by a diethyl ether overdose. The following tissues were collected: liver, lung, kidney, heart, spleen, perinephric fat, brain, upper small intestine, stomach, pancreas, bone (femur and tibia), testis, skin and skeletal muscle. A sample of bone marrow was also collected (approximately20 mg).
# 300 mg tissue samples were placed in scintillation vials and 300 μl of 70% perchloric acid and 600 μl of 30% hydrogen peroxide were added to each vial and also to the vials containing the washed red blood cells aliquots. The vials were incubated at 75° C. for 1 hour in a shaking water bath and were tightly capped to prevent any loss of radioactivity by evaporation.
# The vials were left to cool to room temperature for 15 minutes before 10 ml Aquasol-2 scintillation fluid was added to each vial. The total radioactivity was counted in a Beckman model 7500 LS spectrophotometer.
# [5] = Acid-hydrolyzed fraction of SA in liver, kidney and plasma after 14C-aspirin; conditions: low or high dose combinations
# Experimental: as §1
# For each sample to be analyzed, 2 aliquots each of 300 mg of tissue (liver or kidney) or 100 μl of plasma, were placed in polyethylene wide-pore tubes (Fisherbrand) along with 0.5 ml of physiological saline. The tissues were homogenized using an electrical homogenizer (Polytron, Brinkmann Instruments, Westbury, N.Y.) on high speed for 2 minutes for each sample. The tubes were dipped in ice during this procedure to minimize any loss of SA by sublimation from the heat generated by the high speed of the homogenization.
# The homogenates were transferred by pipette to pyrex screw-top test tubes and the tubes were then divided into 2 groups: […]
# The supernatants were filtered through disposable 0.45 μm Acrodisc filters and 100 μl were injected onto HPLC. […] The radioactivity in the vials was measured by Beckman LS scintillation counter and the difference in radioactivity between the control vials and the acidhydrolyzed ones was indicative of SA conjugates as well as part of the protein-bound SA in the tissue samples. […]
# [6] = cited from earlier work
# [7] = tested on: cyclooxygenase; conditions: in vitro, cited from earlier work
# [8] = 1.5 hr, 14C-ASA 10 mg/kg, alone or with SAM 3 mg/kg
# [9] = 1.5 hr, 14C-ASA 20 mg/kg, alone or with SAM 6 mg/kg
smiles,measurement,setting,value
"CC(=O)Oc1ccccc1C(=O)O [ASA, acetylsalicylic acid]",Effect on the lipooxygenase pathway,[1],reversibly block the lipooxygenase pathway
same,Intestinal and hepatic extraction and/or metabolism of oral dose,[2],More than 60%
same,Effect on lyso-PAF:acetyl-CoA acetyltransferase,[3],inhibitory effect
"NC(=O)c1ccccc1O [SAM, Salicylamide]","Change of 14C distribution in plasma, skin, testis and brain",[4]; 14C-ASA 20 mg/kg with SAM 6 mg/kg vs 14C-ASA alone,significant increase
same,Tissue with the highest 14C concentration,[4]; 1.5 hr,plasma attained the highest concentration
same,Change of 14C activity in stomach (gastric mucosa),"[4]; 1.5 hr, 14C-ASA/SAM 10/3 mg/kg vs 14C-ASA 10 mg/kg",lower concentration of ^14 C radioactivity
same,"Change of 14C radioactivity and 14C-SA in plasma, liver and lung",[4]; SAM with 14C-ASA,discernable and parallel increase
same,Change of acid-hydrolyzed SA fraction in liver,[5],did not affect
same,Biliary excretion,[6]; in vivo,negligible
same,Bound to plasma proteins,[6]; in vivo,About 50%
same,Hydrolysis in vivo to a salicylate,[6]; in vivo,not hydrolyzed in vivo to form a salicylate
same,First-pass metabolism of the administered dose,[6]; oral,up to 70%
same,Effect on cyclooxygenase,[7],no effect in vitro on cyclooxygenase
same,Effect on cyclooxygenase,[7]; listed as salicylamide,does not have a demonstrable effect on the cyclooxygenase pathway in vitro
CC(=O)Oc1ccccc1[14C](=O)O [^14 C-ASA],14C radioactivity in RBCs,[4]; [8],4.2 ± 1.2 μg/gm tissue
same,14C radioactivity in blood,[4]; [8],17.1 ± 3.1 μg/gm tissue
same,14C radioactivity in bone,[4]; [8],2.7 ± 0.08 μg/gm tissue
same,14C radioactivity in bone marrow,[4]; [8],0.24 ± 0.05 μg/50 mg of bone marrow
same,14C radioactivity in brain,[4]; [8],1.5 ± 0.1 μg/gm tissue
same,14C radioactivity in fat,[4]; [8],3.3 ± 0.1 μg/gm tissue
same,14C radioactivity in heart,[4]; [8],5.6 ± 0.5 μg/gm tissue
same,14C radioactivity in kidney,[4]; [8],15.1 ± 0.9 μg/gm tissue
same,14C radioactivity in liver,[4]; [8],7.9 ± 0.9 μg/gm tissue
same,14C radioactivity in lung,[4]; [8],7.3 ± 0.5 μg/gm tissue
same,14C radioactivity in muscle,[4]; [8],3.5 ± 0.2 μg/gm tissue
same,14C radioactivity in pancreas,[4]; [8],5.7 ± 0.4 μg/gm tissue
same,14C radioactivity in plasma,[4]; [8],35.5 ± 1.7 μg/gm tissue
same,14C radioactivity in skin,[4]; [8],8.9 ± 0.4 μg/gm tissue
same,14C radioactivity in spleen,[4]; [8],2.9 ± 0.6 μg/gm tissue
same,14C radioactivity in stomach,[4]; [8],18.9 ± 3.3 μg/gm tissue
same,14C radioactivity in testis,[4]; [8],5.1 ± 0.5 μg/gm tissue
same,14C radioactivity in upper small intestine,[4]; [8],5.8 ± 0.6 μg/gm tissue
same,14C radioactivity in washed RBCs,[4]; [8],1.5 ± 0.5 μg/gm tissue
same,14C radioactivity in RBCs,[4]; [9],8.8 ± 1.2 μgm/gm tissue
same,14C radioactivity in blood,[4]; [9],36.1 ± 3.5 μgm/gm tissue
same,14C radioactivity in bone,[4]; [9],7.1 ± 0.6 μgm/gm tissue
same,14C radioactivity in bone marrow,[4]; [9],0.79 ± 0.03 μgm/50 mg bone marrow
same,14C radioactivity in brain,[4]; [9],4.1 ± 0.07 μgm/gm tissue
same,14C radioactivity in fat,[4]; [9],4.5 ± 0.3 μgm/gm tissue
same,14C radioactivity in heart,[4]; [9],17.5 ± 0.5 μgm/gm tissue
same,14C radioactivity in kidney,[4]; [9],32.0 ± 3.2 μgm/gm tissue
same,14C radioactivity in liver,[4]; [9],19.7 ± 0.9 μgm/gm tissue
same,14C radioactivity in lung,[4]; [9],19.3 ± 0.7 μgm/gm tissue
same,14C radioactivity in muscle,[4]; [9],9.5 ± 0.4 μgm/gm tissue
same,14C radioactivity in pancreas,[4]; [9],12.6 ± 0.5 μgm/gm tissue
same,14C radioactivity in plasma,[4]; [9],65.1 ± 1.91 μgm/gm tissue
same,14C radioactivity in skin,[4]; [9],21.9 ± 0.6 μgm/gm tissue
same,14C radioactivity in spleen,[4]; [9],10.0 ± 0.9 μgm/gm tissue
same,14C radioactivity in stomach,[4]; [9],22.9 ± 4.6 μgm/gm tissue
same,14C radioactivity in testis,[4]; [9],14.1 ± 0.6 μgm/gm tissue
same,14C radioactivity in upper small intestine,[4]; [9],15.1 ± 1.0 μgm/gm tissue
same,14C radioactivity in washed RBCs,[4]; [9],3.8 ± 0.9 μgm/gm tissue
same,Tissue with the highest 14C concentration,[4]; 1.5 hr,plasma attained the highest concentration
